From patent US11820766B2, “Monoacylglycerol lipase modulators” (Janssen Pharmaceutica NV, priority 2018, dated 2023)
pIC50: −log10 of the molar value.

What follows are compounds tested against T1, human MGL from HeLa cells (Homo sapiens, UniProt Q99685) (assay: In vitro MGL activity assay: [glycerol-1,3-3H]-oleyl glycerol cleavage by MGL from HeLa cells). Conditions: 300 nM [Glycerol-1,3-3H]-oleyl glycerol, one hour.
T1 construct: combining endogenously expressed MGL from HeLa cells with test compounds; endogenous in cells; host or cells: HeLa cells / cell homogenates
T1 sequence (Q99685 1-303): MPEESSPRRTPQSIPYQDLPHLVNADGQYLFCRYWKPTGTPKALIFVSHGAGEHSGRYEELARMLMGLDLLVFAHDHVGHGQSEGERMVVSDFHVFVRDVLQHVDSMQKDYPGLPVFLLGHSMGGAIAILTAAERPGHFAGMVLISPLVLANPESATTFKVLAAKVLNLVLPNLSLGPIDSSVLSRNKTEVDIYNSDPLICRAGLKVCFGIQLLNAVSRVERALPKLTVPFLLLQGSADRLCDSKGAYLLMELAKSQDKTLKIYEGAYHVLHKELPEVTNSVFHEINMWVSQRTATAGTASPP
Assay type: biochemical
Description: MGL is the predominant hydrolase in HeLa cells/cell homogenates.

Row | pIC50 | SMILES
1 | 6.78 | Cc1cn2nc(C(=O)N3CCc4c(nn(C)c4-c4cc(F)c(F)c(F)c4)[C@@H]3C)ccc2n1 [Example 453, [(7S)-2,7-Dimethyl-3-(3,4,5-trifluorophenyl)-5,7-dihydro-4H-pyrazolo[3,4-c]pyridin-6-yl]-(2-methylimidazo[1,2-b]pyridazin-6-yl)methanone]
2 | 7.60 | C[C@H]1c2nn(C)c(-c3cc(F)c(F)c(F)c3)c2CCN1C(=O)c1cnc2cccnn12 [Example 454, [(7S)-2,7-Dimethyl-3-(3,4,5-trifluorophenyl)-5,7-dihydro-4H-pyrazolo[3,4-c]pyridin-6-yl]-imidazo[1,2-b]pyridazin-3-yl-methanone]
3 | 7.64 | Cc1nc2cccnn2c1C(=O)N1CCc2c(nn(C)c2-c2cc(F)c(F)c(F)c2)[C@@H]1C [Example 455, [(7S)-2,7-Dimethyl-3-(3,4,5-trifluorophenyl)-5,7-dihydro-4H-pyrazolo[3,4-c]pyridin-6-yl]-(2-methylimidazo[1,2-b]pyridazin-3-yl)methanone]
4 | 7.60 | Cc1nc2c(C)ccnn2c1C(=O)N1CCc2c(nn(C)c2-c2cc(F)c(F)c(F)c2)[C@@H]1C [Example 456, (2,8-Dimethylimidazo[1,2-b]pyridazin-3-yl)-[(7S)-2,7-dimethyl-3-(3,4,5-trifluorophenyl)-5,7-dihydro-4H-pyrazolo[3,4-c]pyridin-6-yl]methanone]
5 | 7.40 | Cc1cnn2c(C(=O)N3CCc4c(nn(C)c4-c4cc(F)c(F)c(F)c4)[C@@H]3C)c(C)nc2c1 [Example 457, (2,7-Dimethylimidazo[1,2-b]pyridazin-3-yl)-[(7S)-2,7-dimethyl-3-(3,4,5-trifluorophenyl)-5,7-dihydro-4H-pyrazolo[3,4-c]pyridin-6-yl] methanone]
6 | 6.79 | Cc1nc2ncccn2c1C(=O)N1CCc2c(nn(C)c2-c2cc(F)c(F)c(F)c2)[C@@H]1C [Example 458, [(7S)-2,7-Dimethyl-3-(3,4,5-trifluorophenyl)-5,7-dihydro-4H-pyrazolo[3,4-c]pyridin-6-yl]-(2-methylimidazo[1,2-a]pyrimidin-3-yl)methanone]
7 | 6.51 | Cc1nc2c(C)ncc(C)n2c1C(=O)N1CCc2c(nn(C)c2-c2cc(F)c(F)c(F)c2)[C@@H]1C [Example 459, [(7S)-2,7-Dimethyl-3-(3,4,5-trifluorophenyl)-5,7-dihydro-4H-pyrazolo[3,4-c]pyridin-6-yl]-(2,5,8-trimethylimidazo[1,2-a]pyrazin-3-yl)methanone]
8 | 6.28 | Cc1nc(C(=O)N2CCc3c(nn(C)c3-c3cc(F)c(F)c(F)c3)[C@@H]2C)c2ncccn12 [Example 460, [(7S)-2,7-Dimethyl-3-(3,4,5-trifluorophenyl)-5,7-dihydro-4H-pyrazolo[3,4-c]pyridin-6-yl]-(6-methylimidazo[1,5-a]pyrimidin-8-yl)methanone]
9 | 5.99 | Cc1cnc2c(C(=O)N3CCc4c(nn(C)c4-c4cc(F)c(F)c(F)c4)[C@@H]3C)ncn2c1 [Example 461, [(7S)-2,7-Dimethyl-3-(3,4,5-trifluorophenyl)-5,7-dihydro-4H-pyrazolo[3,4-c]pyridin-6-yl]-(3-methylimidazo[1,5-a]pyrimidin-8-yl)methanone]
10 | 7.45 | Cc1nc(C(=O)N2CCc3c(nn(C)c3-c3cc(F)c(F)c(F)c3)[C@@H]2C)c2cnccn12 [Example 462, [(7S)-2,7-Dimethyl-3-(3,4,5-trifluorophenyl)-5,7-dihydro-4H-pyrazolo[3,4-c]pyridin-6-yl]-(3-methylimidazo[1,5-a]pyrazin-1-yl) methanone]
11 | 7.70 | C[C@H]1c2nn(C)c(-c3cc(F)c(F)c(F)c3)c2CCN1C(=O)c1nc(C(F)(F)F)n2ccncc12 [Example 463, [(7S)-2,7-Dimethyl-3-(3,4,5-trifluorophenyl)-5,7-dihydro-4H-pyrazolo[3,4-c]pyridin-6-yl]-[3-(trifluoromethyl)imidazo[1,5-a]pyrazin-1-yl]methanone]
12 | 7.50 | Cc1c[nH]c2ncnc(C(=O)N3CCc4c(nn(C)c4-c4cc(F)c(F)c(F)c4)[C@@H]3C)c12 [Example 464, [(7S)-2,7-Dimethyl-3-(3,4,5-trifluorophenyl)-5,7-dihydro-4H-pyrazolo[3,4-c]pyridin-6-yl]-(5-methyl-7H-pyrrolo[2,3-d]pyrimidin-4-yl)methanone]
13 | 8.07 | Cc1cc(F)cc(-c2c3c(nn2C)[C@H](C)N(C(=O)c2ncnc4c2ccn4C)CC3)c1 [Example 465, [(7S)-3-(3-Fluoro-5-methyl-phenyl)-2,7-dimethyl-5,7-dihydro-4H-pyrazolo[3,4-c]pyridin-6-yl]-(7-methylpyrrolo[2,3-d]pyrimidin-4-yl) methanone]
14 | 8.23 | C[C@H]1c2nn(C)c(-c3cc(F)c(F)c(F)c3)c2CCN1C(=O)c1ncnc2c1ccn2C [Example 466, [(7S)-2,7-Dimethyl-3-(3,4,5-trifluorophenyl)-5,7-dihydro-4H-pyrazolo[3,4-c]pyridin-6-yl]-(7-methylpyrrolo[2,3-d]pyrimidin-4-yl)methanone]
15 | 7.44 | Cc1cn(C)c2ncnc(C(=O)N3CCc4c(nn(C)c4-c4cc(F)c(F)c(F)c4)[C@@H]3C)c12 [Example 467, (5,7-Dimethylpyrrolo[2,3-d]pyrimidin-4-yl)-[(7S)-2,7-dimethyl-3-(3,4,5-trifluorophenyl)-5,7-dihydro-4H-pyrazolo[3,4-c]pyridin-6-yl] methanone]
16 | 7.29 | C[C@H]1c2nn(C)c(-c3cccc(C(F)(F)F)c3)c2CCN1C(=O)c1ccc2ncccc2c1 [Example 468, [(7S)-2,7-Dimethyl-3-[3-(trifluoromethyl)phenyl]-5,7-dihydro-4H-pyrazolo[3,4-c]pyridin-6-yl]-(6-quinolyl)methanone]
17 | 7.44 | Cc1cc2c(C(=O)N3CCc4c(nn(C)c4-c4cc(F)c(F)c(F)c4)[C@@H]3C)ncnc2n1C [Example 469, (6,7-Dimethylpyrrolo[2,3-d]pyrimidin-4-yl)-[(7S)-2,7-dimethyl-3-(3,4,5-trifluorophenyl)-5,7-dihydro-4H-pyrazolo[3,4-c]pyridin-6-yl]methanone]
18 | 5.48 | C[C@H]1c2nn(C)c(-c3cc(F)c(F)c(F)c3)c2CCN1C(=O)c1ncnc2nc[nH]c12 [Example 470, [(7S)-2,7-Dimethyl-3-(3,4,5-trifluorophenyl)-5,7-dihydro-4H-pyrazolo[3,4-c]pyridin-6-yl]-(7H-purin-6-yl)methanone]
19 | 7.49 | C[C@H]1c2nn(C)c(-c3cc(F)c(F)c(F)c3)c2CCN1C(=O)c1ncnc2c1cnn2C [Example 471, [(7S)-2,7-Dimethyl-3-(3,4,5-trifluorophenyl)-5,7-dihydro-4H-pyrazolo[3,4-c]pyridin-6-yl]-(1-methylpyrazolo[3,4-d]pyrimidin-4-yl)methanone]
20 | 5.81 | Cc1cc(C(=O)N2CCc3c(nn(C)c3-c3cc(F)c(F)c(F)c3)[C@@H]2C)n2ncnc2n1 [Example 472, [(7S)-2,7-Dimethyl-3-(3,4,5-trifluorophenyl)-5,7-dihydro-4H-pyrazolo[3,4-c]pyridin-6-yl]-(5-methyl-[1,2,4]triazolo[1,5-a]pyrimidin-7-yl)methanone]
21 | 7.51 | Cc1cc2nccnc2cc1C(=O)N1CCc2c(nn(C)c2-c2cc(F)c(F)c(F)c2)[C@@H]1C [Example 473, [(7S)-2,7-Dimethyl-3-(3,4,5-trifluorophenyl)-5,7-dihydro-4H-pyrazolo[3,4-c]pyridin-6-yl]-(7-methylquinoxalin-6-yl) methanone]
22 | 7.07 | Cc1cnc2c(C(=O)N3CCc4c(nn(C)c4-c4cc(F)c(F)c(F)c4)[C@@H]3C)cccc2n1 [Example 474, [(7S)-2,7-Dimethyl-3-(3,4,5-trifluorophenyl)-5,7-dihydro-4H-pyrazolo[3,4-c]pyridin-6-yl]-(2-methylquinoxalin-5-yl)methanone]
23 | 7.13 | Cc1cnc2cccc(C(=O)N3CCc4c(nn(C)c4-c4cc(F)c(F)c(F)c4)[C@@H]3C)c2n1 [Example 475, [(7S)-2,7-Dimethyl-3-(3,4,5-trifluorophenyl)-5,7-dihydro-4H-pyrazolo[3,4-c]pyridin-6-yl]-(3-methylquinoxalin-5-yl)methanone]
24 | 7.59 | Cc1nc2ccc(C(=O)N3CCc4c(nn(C)c4-c4cc(F)c(F)c(F)c4)[C@@H]3C)cc2nc1C [Example 476, (2,3-Dimethylquinoxalin-6-yl)-[(7S)-2,7-dimethyl-3-(3,4,5-trifluorophenyl)-5,7-dihydro-4H-pyrazolo[3,4-c]pyridin-6-yl]methanone]
25 | 6.90 | C[C@H]1c2nn(C)c(-c3cc(F)c(F)c(F)c3)c2CCN1C(=O)c1cnc2ccccc2n1 [Example 477, [(7S)-2,7-Dimethyl-3-(3,4,5-trifluorophenyl)-5,7-dihydro-4H-pyrazolo[3,4-c]pyridin-6-yl]-quinoxalin-2-yl-methanone]
26 | 6.95 | C[C@H]1c2nn(C)c(-c3cc(F)c(F)c(F)c3)c2CCN1C(=O)c1cc2ccccc2nn1 [Example 478, Cinnolin-3-yl-[(7S)-2,7-dimethyl-3-(3,4,5-trifluorophenyl)-5,7-dihydro-4H-pyrazolo[3,4-c]pyridin-6-yl]methanone]
27 | 6.72 | C[C@H]1c2nn(C)c(-c3cc(F)c(F)c(F)c3)c2CCN1C(=O)c1ccc2ncncc2c1 [Example 479, [(7S)-2,7-Dimethyl-3-(3,4,5-trifluorophenyl)-5,7-dihydro-4H-pyrazolo[3,4-c]pyridin-6-yl]-quinazolin-6-yl-methanone]
28 | 6.68 | C[C@H]1c2nn(C)c(-c3cc(F)c(F)c(F)c3)c2CCN1C(=O)c1ccc2cncnc2c1 [Example 480, [(7S)-2,7-Dimethyl-3-(3,4,5-trifluorophenyl)-5,7-dihydro-4H-pyrazolo[3,4-c]pyridin-6-yl]-quinazolin-7-yl-methanone]
